Experimental data as given in ChEMBL document CHEMBL4842324, “PdCl2-catalyzed synthesis of a new class of isocoumarin derivatives containing aminosulfonyl / aminocarboxamide moiety: First identification of a isocoumarin based PDE4 inhibitor” (Eur J Med Chem, 2021).
One block for each molecule: values may come before it. Activity calls are given as the source filed them. No cut-off for these calls is given here.

Columns and labels:
[1] = target: T1, 3',5'-cyclic-AMP phosphodiesterase 4B (Homo sapiens, UniProt Q07343); experiment: Inhibition of PDE4B (unknown origin) using [3H]cAMP as substrate at 10 uM incubated for 30 mins by scintillation proximity assay relative to control
[2] = target: T1, 3',5'-cyclic-AMP phosphodiesterase 4B; experiment: Inhibition of PDE4B (unknown origin) using [3H]cAMP as substrate incubated for 30 mins by scintillation proximity assay
[3] = target: 3',5'-cyclic-AMP phosphodiesterase 4D (Homo sapiens, UniProt Q08499); experiment: Inhibition of PDE4D (unknown origin)
Homo sapiens = organism: Homo sapiens; experiment: Selectivity ratio of IC50 for PDE4D (unknown origin) to IC50 for PDE4B (unknown origin)
[4] = target: Tumor necrosis factor (Homo sapiens) (UniProt P01375); experiment: Inhibition of TNF-alpha (unknown origin) at 0.1 uM relative to control
Rattus norvegicus [5] = experiment: Antiinflammatory activity against complete Freund's adjuvant induced rat model of arthritis assessed as reduction in paw volume at 1 mg/kg, po administered once daily measured on day 21 by macroscopic analysis; format: functional, organism-based; details: time 21.0 day
Rattus norvegicus [6] = experiment: Antiinflammatory activity against complete Freund's adjuvant induced rat model of arthritis assessed as reduction in joint structure deformity at 1 mg/kg, ip measured on day 21 by radiographic analysis; format: functional, organism-based; details: time 21.0 day
Rattus norvegicus [7] = experiment: Antiinflammatory activity against complete Freund's adjuvant induced rat model of arthritis assessed as decrease in TNF-alpha expression at 10 to 30 mg/kg, ip by immunohistochemical staining based assay; format: functional, organism-based; details: dose 10-30 mg/kg
[8] = target: Dual specificity calcium/calmodulin-dependent 3',5'-cyclic nucleotide phosphodiesterase 1A (Homo sapiens) (UniProt P54750); experiment: Inhibition of PDE1A1 (unknown origin) at 10 uM relative to control
[9] = target: Dual specificity calcium/calmodulin-dependent 3',5'-cyclic nucleotide phosphodiesterase 1B (Homo sapiens) (UniProt Q01064); experiment: Inhibition of PDE1B (unknown origin) at 10 uM relative to control
[10] = target: Dual specificity calcium/calmodulin-dependent 3',5'-cyclic nucleotide phosphodiesterase 1C (Homo sapiens) (UniProt Q14123); experiment: Inhibition of PDE1C (unknown origin) at 10 uM relative to control
[11] = target: cGMP-dependent 3',5'-cyclic phosphodiesterase (Homo sapiens) (UniProt O00408); experiment: Inhibition of PDE2A1 (unknown origin) at 10 uM relative to control
[12] = target: cGMP-inhibited 3',5'-cyclic phosphodiesterase 3A (Homo sapiens) (UniProt Q14432); experiment: Inhibition of PDE3A (unknown origin) at 10 uM relative to control
[13] = target: cGMP-inhibited 3',5'-cyclic phosphodiesterase 3B (Homo sapiens) (UniProt Q13370); experiment: Inhibition of PDE3B (unknown origin) at 10 uM relative to control
[14] = target: cGMP-specific 3',5'-cyclic phosphodiesterase (Homo sapiens) (UniProt O76074); experiment: Inhibition of PDE5A1 (unknown origin) at 10 uM relative to control
[15] = target: Cone cGMP-specific 3',5'-cyclic phosphodiesterase subunit alpha' (Homo sapiens) (UniProt P51160); experiment: Inhibition of PDE6C (unknown origin) at 10 uM relative to control
[16] = target: High affinity 3',5'-cyclic-AMP phosphodiesterase 7A (Homo sapiens) (UniProt Q13946); experiment: Inhibition of PDE7A1 (unknown origin) at 10 uM relative to control
[17] = target: 3',5'-cyclic-AMP phosphodiesterase 7B (Homo sapiens) (UniProt Q9NP56); experiment: Inhibition of PDE7B (unknown origin) at 10 uM relative to control
[18] = target: High affinity cAMP-specific and IBMX-insensitive 3',5'-cyclic phosphodiesterase 8A (Homo sapiens) (UniProt O60658); experiment: Inhibition of PDE8A1 (unknown origin) at 10 uM relative to control
[19] = target: High affinity cGMP-specific 3',5'-cyclic phosphodiesterase 9A (Homo sapiens) (UniProt O76083); experiment: Inhibition of PDE9A2 (unknown origin) at 10 uM relative to control
[20] = target: cAMP and cAMP-inhibited cGMP 3',5'-cyclic phosphodiesterase 10A (Homo sapiens) (UniProt Q9Y233); experiment: Inhibition of PDE10A1 (unknown origin) at 10 uM relative to control
[21] = target: cAMP and cAMP-inhibited cGMP 3',5'-cyclic phosphodiesterase 10A (Homo sapiens) (UniProt Q9Y233); experiment: Inhibition of PDE10A2 (unknown origin) at 10 uM relative to control
[22] = target: Dual 3',5'-cyclic-AMP and -GMP phosphodiesterase 11A (Homo sapiens) (UniProt Q9HCR9); experiment: Inhibition of PDE11A4 (unknown origin) at 10 uM relative to control
[23] = target: Tumor necrosis factor (Homo sapiens) (UniProt P01375); experiment: Inhibition of TNF-alpha (unknown origin) at 10 uM relative to control
[24] = target: Tumor necrosis factor (Homo sapiens) (UniProt P01375); experiment: Inhibition of TNF-alpha (unknown origin) at 3 uM relative to control
[25] = target: Tumor necrosis factor (Homo sapiens) (UniProt P01375); experiment: Inhibition of TNF-alpha (unknown origin) at 1 uM relative to control
[26] = target: Tumor necrosis factor (Homo sapiens) (UniProt P01375); experiment: Inhibition of TNF-alpha (unknown origin) at 0.3 uM relative to control
Rattus norvegicus [27] = experiment: Antiinflammatory activity against complete Freund's adjuvant induced ip dosed rat model of arthritis assessed as reduction in paw swelling measured on day 21 by macroscopic analysis; format: functional, organism-based; details: time 21.0 day
Rattus norvegicus [28] = experiment: Antiinflammatory activity against complete Freund's adjuvant induced rat model of arthritis assessed as reduction in paw volume at 30 mg/kg, ip measured on day 21 by macroscopic analysis; format: functional, organism-based; details: time 21.0 day
Rattus norvegicus [29] = experiment: Antiinflammatory activity against complete Freund's adjuvant induced rat model of arthritis assessed as improvement in intestinal absorption at 30 mg/kg, ip measured on day 21; format: functional, organism-based; details: time 21.0 day
Rattus norvegicus [30] = experiment: Antiinflammatory activity against complete Freund's adjuvant induced rat model of arthritis assessed as decrease in pathological changes at 30 mg/kg, ip measured on day 21 by H and E staining based histopathological analysis; format: functional, organism-based; details: time 21.0 day
Rattus norvegicus [31] = experiment: Antiinflammatory activity against complete Freund's adjuvant induced rat model of arthritis assessed as reduction in joint degeneration changes at 30 mg/kg, ip measured on day 21 by H and E staining based histopathological analysis; format: functional, organism-based; details: time 21.0 day
Rattus norvegicus [32] = experiment: Antiinflammatory activity against complete Freund's adjuvant induced rat model of arthritis assessed as effect on IL-6 expression at 10 to 30 mg/kg, ip by immunohistochemical staining based assay; format: functional, organism-based; details: dose 10-30 mg/kg
RAW264.7 = experiment: Cytotoxicity against mouse RAW264.7 cells assessed as reduction in cell viability measured after 48 hrs by MTT assay; format: cell-based; details: RAW264.7, 48 h
[33] = Toxicity in zebrafish embryos assessed as teratogenicity at 1 to 100 uM; design: species or system Danio rerio; details: in vivo, dose 1-100 µM
[34] = Hepatotoxicity in zebrafish embryos assessed as effect on liver size at 1 to 100 uM; format: toxicity, Danio rerio; details: in vivo, dose 1-100 µM
[35] = Hepatotoxicity in zebrafish embryos assessed as liver degeneration at 1 to 100 uM; format: toxicity, Danio rerio; details: in vivo, dose 1-100 µM
[36] = Cardiac toxicity in zebrafish embryos assessed as effect on heart rate at 1 to 100 uM; design: species or system Danio rerio; details: in vivo, dose 1-100 µM
[37] = Toxicity in zebrafish embryos assessed as induction of apoptosis at 1 to 100 uM; design: species or system Danio rerio; details: dose 1-100 µM

T1 sequence (Q07343 whole entry): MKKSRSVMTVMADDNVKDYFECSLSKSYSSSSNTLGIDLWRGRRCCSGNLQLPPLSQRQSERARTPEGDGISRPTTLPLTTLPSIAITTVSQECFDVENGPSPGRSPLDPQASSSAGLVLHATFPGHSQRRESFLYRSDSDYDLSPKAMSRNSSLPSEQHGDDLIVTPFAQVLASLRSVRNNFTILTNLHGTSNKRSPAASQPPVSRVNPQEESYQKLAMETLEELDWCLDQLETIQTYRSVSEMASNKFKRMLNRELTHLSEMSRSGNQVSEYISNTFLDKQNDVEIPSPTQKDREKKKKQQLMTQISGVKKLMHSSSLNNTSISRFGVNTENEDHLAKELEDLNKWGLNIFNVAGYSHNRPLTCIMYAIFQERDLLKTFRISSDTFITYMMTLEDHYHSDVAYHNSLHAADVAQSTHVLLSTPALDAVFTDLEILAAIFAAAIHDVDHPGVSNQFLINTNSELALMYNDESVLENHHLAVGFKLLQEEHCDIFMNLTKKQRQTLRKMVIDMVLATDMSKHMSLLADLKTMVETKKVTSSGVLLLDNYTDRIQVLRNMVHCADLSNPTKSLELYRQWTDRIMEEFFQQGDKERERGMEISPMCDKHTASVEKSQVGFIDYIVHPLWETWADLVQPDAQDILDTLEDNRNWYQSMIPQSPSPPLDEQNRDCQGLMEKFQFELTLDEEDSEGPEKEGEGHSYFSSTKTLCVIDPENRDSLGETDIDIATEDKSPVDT
Tumor necrosis factor (Homo sapiens), sequence (P01375 whole entry): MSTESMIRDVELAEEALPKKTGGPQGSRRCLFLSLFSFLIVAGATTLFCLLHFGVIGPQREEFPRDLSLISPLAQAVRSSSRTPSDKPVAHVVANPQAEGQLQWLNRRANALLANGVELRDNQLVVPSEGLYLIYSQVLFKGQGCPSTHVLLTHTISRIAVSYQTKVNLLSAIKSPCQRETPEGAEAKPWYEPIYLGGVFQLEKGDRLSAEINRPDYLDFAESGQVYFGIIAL
3',5'-cyclic-AMP phosphodiesterase 4D, sequence (Q08499 whole entry): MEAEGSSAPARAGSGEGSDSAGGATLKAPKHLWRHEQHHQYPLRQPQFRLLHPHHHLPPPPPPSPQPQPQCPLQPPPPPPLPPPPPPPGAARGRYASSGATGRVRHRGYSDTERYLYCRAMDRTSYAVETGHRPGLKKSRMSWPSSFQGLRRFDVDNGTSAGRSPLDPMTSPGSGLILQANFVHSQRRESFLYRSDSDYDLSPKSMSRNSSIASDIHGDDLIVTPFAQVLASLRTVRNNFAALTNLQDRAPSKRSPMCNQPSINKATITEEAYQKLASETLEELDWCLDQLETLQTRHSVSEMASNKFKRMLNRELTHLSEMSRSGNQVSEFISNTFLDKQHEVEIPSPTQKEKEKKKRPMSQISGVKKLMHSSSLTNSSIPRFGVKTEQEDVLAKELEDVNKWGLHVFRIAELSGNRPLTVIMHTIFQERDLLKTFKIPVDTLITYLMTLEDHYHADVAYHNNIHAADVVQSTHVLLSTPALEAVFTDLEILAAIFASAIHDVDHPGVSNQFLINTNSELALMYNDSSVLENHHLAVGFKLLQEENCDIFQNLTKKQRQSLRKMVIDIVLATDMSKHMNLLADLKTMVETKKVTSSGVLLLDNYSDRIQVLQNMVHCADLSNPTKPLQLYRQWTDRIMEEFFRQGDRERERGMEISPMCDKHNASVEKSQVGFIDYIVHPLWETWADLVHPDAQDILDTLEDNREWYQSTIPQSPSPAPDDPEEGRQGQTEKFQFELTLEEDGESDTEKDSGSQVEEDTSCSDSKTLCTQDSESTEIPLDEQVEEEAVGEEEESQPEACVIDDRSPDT
cAMP and cAMP-inhibited cGMP 3',5'-cyclic phosphodiesterase 10A (Homo sapiens), sequence (Q9Y233 whole entry): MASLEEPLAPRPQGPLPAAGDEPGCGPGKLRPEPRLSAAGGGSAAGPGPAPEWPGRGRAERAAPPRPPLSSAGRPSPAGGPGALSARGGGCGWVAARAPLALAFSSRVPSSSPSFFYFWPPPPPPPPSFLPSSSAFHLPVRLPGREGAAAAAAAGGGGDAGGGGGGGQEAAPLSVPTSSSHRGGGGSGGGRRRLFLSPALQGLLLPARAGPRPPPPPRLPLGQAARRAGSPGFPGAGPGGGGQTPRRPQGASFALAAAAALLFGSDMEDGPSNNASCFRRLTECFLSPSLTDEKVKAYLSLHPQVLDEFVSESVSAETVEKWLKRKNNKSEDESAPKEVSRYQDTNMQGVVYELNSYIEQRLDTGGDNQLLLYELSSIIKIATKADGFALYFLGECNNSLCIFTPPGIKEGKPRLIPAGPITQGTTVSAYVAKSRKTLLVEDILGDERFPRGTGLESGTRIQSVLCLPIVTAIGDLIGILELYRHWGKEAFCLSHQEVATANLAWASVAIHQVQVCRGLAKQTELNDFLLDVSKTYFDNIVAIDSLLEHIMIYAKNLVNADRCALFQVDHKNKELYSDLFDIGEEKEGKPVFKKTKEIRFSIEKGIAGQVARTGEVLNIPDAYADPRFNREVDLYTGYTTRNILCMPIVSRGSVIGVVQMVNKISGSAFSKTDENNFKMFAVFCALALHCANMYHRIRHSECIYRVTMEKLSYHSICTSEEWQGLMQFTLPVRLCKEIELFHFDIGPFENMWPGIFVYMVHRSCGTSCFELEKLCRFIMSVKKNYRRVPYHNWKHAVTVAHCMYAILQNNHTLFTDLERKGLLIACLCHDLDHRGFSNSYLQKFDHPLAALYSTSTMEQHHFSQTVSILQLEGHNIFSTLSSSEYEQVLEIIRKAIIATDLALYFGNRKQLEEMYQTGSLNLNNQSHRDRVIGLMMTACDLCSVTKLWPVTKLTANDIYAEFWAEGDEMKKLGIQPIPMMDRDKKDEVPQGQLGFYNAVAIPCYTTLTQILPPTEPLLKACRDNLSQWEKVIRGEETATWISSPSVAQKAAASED
cGMP-dependent 3',5'-cyclic phosphodiesterase (Homo sapiens), sequence (O00408 whole entry): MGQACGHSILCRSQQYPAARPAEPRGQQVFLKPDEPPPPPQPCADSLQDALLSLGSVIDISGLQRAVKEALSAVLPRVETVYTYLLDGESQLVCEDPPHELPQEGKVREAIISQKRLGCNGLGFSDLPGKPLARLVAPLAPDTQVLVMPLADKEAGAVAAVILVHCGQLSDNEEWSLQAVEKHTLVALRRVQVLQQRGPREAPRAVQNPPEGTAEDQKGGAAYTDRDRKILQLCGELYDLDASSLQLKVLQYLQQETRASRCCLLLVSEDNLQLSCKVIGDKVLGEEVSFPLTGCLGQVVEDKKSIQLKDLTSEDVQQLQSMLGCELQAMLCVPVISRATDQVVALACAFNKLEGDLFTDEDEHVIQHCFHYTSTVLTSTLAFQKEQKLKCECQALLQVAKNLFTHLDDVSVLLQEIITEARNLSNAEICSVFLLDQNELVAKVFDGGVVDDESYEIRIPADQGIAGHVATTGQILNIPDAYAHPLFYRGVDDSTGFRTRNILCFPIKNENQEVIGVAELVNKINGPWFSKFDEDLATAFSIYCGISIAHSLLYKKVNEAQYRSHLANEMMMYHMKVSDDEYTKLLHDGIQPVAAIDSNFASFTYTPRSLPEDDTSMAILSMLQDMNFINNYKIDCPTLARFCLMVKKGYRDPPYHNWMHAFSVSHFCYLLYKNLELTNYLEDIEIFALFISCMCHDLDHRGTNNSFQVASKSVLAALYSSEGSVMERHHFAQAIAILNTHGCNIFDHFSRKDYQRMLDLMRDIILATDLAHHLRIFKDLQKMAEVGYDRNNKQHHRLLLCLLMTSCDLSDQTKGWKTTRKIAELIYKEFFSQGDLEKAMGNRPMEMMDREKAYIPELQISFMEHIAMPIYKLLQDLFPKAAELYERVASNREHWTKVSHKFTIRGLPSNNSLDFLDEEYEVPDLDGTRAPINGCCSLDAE
cGMP-inhibited 3',5'-cyclic phosphodiesterase 3A (Homo sapiens), sequence (Q14432 whole entry): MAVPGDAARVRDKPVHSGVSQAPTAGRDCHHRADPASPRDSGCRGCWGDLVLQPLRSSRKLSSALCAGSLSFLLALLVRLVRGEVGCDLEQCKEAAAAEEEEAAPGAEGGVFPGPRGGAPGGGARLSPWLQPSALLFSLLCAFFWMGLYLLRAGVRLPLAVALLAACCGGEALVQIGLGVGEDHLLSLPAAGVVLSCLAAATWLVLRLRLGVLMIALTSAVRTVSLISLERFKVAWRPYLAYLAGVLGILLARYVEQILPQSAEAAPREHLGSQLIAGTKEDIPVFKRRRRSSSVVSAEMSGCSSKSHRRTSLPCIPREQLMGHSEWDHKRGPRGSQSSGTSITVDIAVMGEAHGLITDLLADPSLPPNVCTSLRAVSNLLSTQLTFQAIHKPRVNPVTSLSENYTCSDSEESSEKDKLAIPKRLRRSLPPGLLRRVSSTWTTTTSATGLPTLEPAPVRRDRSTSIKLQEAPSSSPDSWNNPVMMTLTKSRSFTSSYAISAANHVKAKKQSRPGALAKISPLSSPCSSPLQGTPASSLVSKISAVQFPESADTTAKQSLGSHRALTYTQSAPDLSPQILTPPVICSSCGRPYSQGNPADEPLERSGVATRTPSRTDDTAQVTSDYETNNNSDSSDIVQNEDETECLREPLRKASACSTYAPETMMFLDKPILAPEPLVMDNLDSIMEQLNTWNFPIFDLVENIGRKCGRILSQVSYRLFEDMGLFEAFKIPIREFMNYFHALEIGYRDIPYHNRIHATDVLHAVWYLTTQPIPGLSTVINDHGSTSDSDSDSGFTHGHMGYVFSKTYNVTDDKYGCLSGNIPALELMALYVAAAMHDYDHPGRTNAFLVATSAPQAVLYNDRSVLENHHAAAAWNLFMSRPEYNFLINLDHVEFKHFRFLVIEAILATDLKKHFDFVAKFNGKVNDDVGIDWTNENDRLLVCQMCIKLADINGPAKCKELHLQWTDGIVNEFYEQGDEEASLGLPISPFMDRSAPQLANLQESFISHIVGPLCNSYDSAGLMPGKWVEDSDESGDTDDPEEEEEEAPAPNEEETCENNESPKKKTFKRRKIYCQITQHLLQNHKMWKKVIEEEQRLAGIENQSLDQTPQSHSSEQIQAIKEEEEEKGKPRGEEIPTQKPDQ

inhibition [1]: 62.2%
Structure (SMILES): C=CCc1c(-c2cccc(NS(C)(=O)=O)c2)oc(=O)c2ccc(Cl)cc12

inhibition [1]: 46.5%
Structure (SMILES): C=CCc1c(-c2ccc(NC(=O)c3ccccc3)cc2)oc(=O)c2ccccc12

inhibition [1]: 82.9% | IC50 [2]: 1240 nM
Structure (SMILES): C=CCc1c(-c2cccc(NS(=O)(=O)c3ccccc3)c2)oc(=O)c2ccccc12

inhibition [1]: 82.2% | IC50 [2]: 430 nM | IC50 [3]: 900 nM | Ratio IC50 (Homo sapiens): 2
Structure (SMILES): C=CCc1c(-c2cccc(NS(=O)(=O)c3ccccc3)c2)oc(=O)c2cc(F)ccc12

inhibition [1]: 56%
Structure (SMILES): C=CCc1c(-c2ccc(NS(C)(=O)=O)cc2)oc(=O)c2ccc(Cl)cc12

inhibition [1]: 77.2%
Structure (SMILES): COc1ccc(C2CNC(=O)C2)cc1OC1CCCC1 (stereo unspecified)
inhibition [4]: 50.3%

inhibition [1]: 77.8% | IC50 [2]: 2070 nM
Structure (SMILES): C=CCc1c(-c2cccc(NS(=O)(=O)c3ccc(C)cc3)c2)oc(=O)c2ccccc12

inhibition [1]: 80% | IC50 [2]: 3330 nM
Structure (SMILES): C=CCc1c(-c2cccc(NS(=O)(=O)c3ccc(OC)cc3)c2)oc(=O)c2ccccc12

inhibition [1]: 72.6%
Structure (SMILES): C=CCc1c(-c2cccc(NC(=O)c3ccccc3)c2)oc(=O)c2ccccc12

inhibition [1]: 81.2% | IC50 [2]: 4780 nM
Structure (SMILES): C=CCc1c(-c2cccc(NS(=O)(=O)c3ccccc3)c2)oc(=O)c2ccc(Cl)cc12

inhibition [1]: 85.9% | IC50 [2]: 1760 nM
Structure (SMILES): C=CCc1c(-c2cccc(NS(=O)(=O)c3cccs3)c2)oc(=O)c2ccccc12

Structure (SMILES): CN(Cc1cnc2nc(N)nc(N)c2n1)c1ccc(C(=O)N[C@@H](CCC(=O)O)C(=O)O)cc1
Activity (Rattus norvegicus [5]): Active | Activity (Rattus norvegicus [6]): inactive | Activity (Rattus norvegicus [7]): Active

inhibition [1]: 79.7% | IC50 [2]: 3040 nM
Structure (SMILES): C=CCc1c(-c2cccc(NS(=O)(=O)c3ccc(C)cc3)c2)oc(=O)c2cc(F)ccc12

inhibition [1]: 55.3%
Structure (SMILES): C=CCc1c(-c2cccc(NS(=O)(=O)c3ccc(C(F)(F)F)cc3)c2)oc(=O)c2ccccc12

inhibition [1]: 74.6%
Structure (SMILES): C=CCc1c(-c2cccc(NC(=O)c3ccccc3)c2)oc(=O)c2cc(F)ccc12

inhibition [1]: 75.7% | IC50 [2]: 4010 nM
Structure (SMILES): C=CCc1c(-c2cccc(NS(=O)(=O)c3cccs3)c2)oc(=O)c2ccc(Cl)cc12

inhibition [1]: 63.5%
Structure (SMILES): C=CCc1c(-c2ccc(NS(=O)(=O)c3ccc(C)cc3)cc2)oc(=O)c2ccccc12

inhibition [1]: 54.9%
Structure (SMILES): C=CCc1c(-c2ccc(NS(C)(=O)=O)cc2)oc(=O)c2ccccc12

inhibition [1]: 96% | IC50 [2]: 540 nM | IC50 [3]: 1340 nM | Ratio IC50 (Homo sapiens): 2.5 | inhibition [8]: 21% | inhibition [9]: 18% | inhibition [10]: 24% | inhibition [11]: 9% | inhibition [12]: 11% | inhibition [13]: 7% | inhibition [14]: 8% | inhibition [15]: 10% | inhibition [16]: 6% | inhibition [17]: 3% | inhibition [18]: 2% | inhibition [19]: 8% | inhibition [20]: 12% | inhibition [21]: 19% | inhibition [22]: 11%
Structure (SMILES): C=CCc1c(-c2cccc(NS(=O)(=O)c3cccs3)c2)oc(=O)c2cc(F)ccc12
inhibition [23]: 65.5% | inhibition [24]: 45.6% | inhibition [25]: 40.3% | inhibition [26]: 30.9% | Activity (Rattus norvegicus [27]): Dose-Dependent Effect | Activity (Rattus norvegicus [28]): Active | Activity (Rattus norvegicus [29]): Active | Activity (Rattus norvegicus [30]): Active | Activity (Rattus norvegicus [31]): Active | Activity (Rattus norvegicus [7]): Active | Activity (Rattus norvegicus [32]): inactive | IC50 (RAW264.7): > 100000 nM | Activity [33]: Non-Toxic | Activity [34]: Non-Toxic | Activity [35]: Non-Toxic | Activity [36]: Non-Toxic | Activity [37]: Non-Toxic

inhibition [1]: 55.8%
Structure (SMILES): C=CCc1c(-c2cccc(NS(C)(=O)=O)c2)oc(=O)c2ccccc12

inhibition [1]: 94% | IC50 [2]: 2360 nM
Structure (SMILES): C=CCc1c(-c2ccc(NS(=O)(=O)c3ccc(C)cc3)cc2)oc(=O)c2cc(F)ccc12

inhibition [1]: 94.4% | IC50 [2]: 1910 nM
Structure (SMILES): C=CCc1c(-c2ccc(NS(=O)(=O)c3ccccc3)cc2)oc(=O)c2cc(F)ccc12

inhibition [1]: 87.6% | IC50 [2]: 3910 nM
Structure (SMILES): C=CCc1c(-c2ccc(NS(=O)(=O)c3ccccc3)cc2)oc(=O)c2ccccc12

inhibition [1]: 90.9% | IC50 [2]: 1940 nM
Structure (SMILES): C=CCc1c(-c2cccc(NS(C)(=O)=O)c2)oc(=O)c2cc(F)ccc12
